{
  "source": "paper PMC4579270",
  "about": "“Identification and Characterization of an Irreversible Inhibitor of CDK2” (Chemistry & Biology, 2015)",
  "key": {"CDK2-Cyclin A": {"molecular_target": "CDK2-Cyclin A (Homo sapiens, UniProt P24941)", "assay": "ESI-MS of covalent adduct", "set-up": "made in house; host or cells: Escherichia coli (CDK2 co-expressed with S. cerevisiae CAK1)", "settings": "wild-type CDK2/cyclin A, overnight incubation, vs control", "method": "To determine whether NU6300 binds covalently to CDK2, recombinant CDK2/cyclin A was incubated overnight with NU6300 and then analyzed by electrospray ionization mass spectrometry (ESI-MS) (Figure S1A). […]\nProtein expression and purification\nSite-directed mutagenesis of CDK2 was performed using the QuikChange II kit (Stratagene) following the manufacturer’s instructions and verified by DNA sequencing.\nWild-type CDK2 phosphorylated at Thr160, untagged human cyclin A2 (residues 174-432), S. cerevisiae GST–CAK, GST–3C-protease and GST–pRb (residues 792–928) were expressed and purified as previously described (Brown et al., 1999a; Brown et al., 1999b; Welburn and Endicott, 2005). GST-CDK2 mutants were expressed and purified as described (Welburn and Endicott, 2005) and subsequently phosphorylated in vitro by GST-CAK essentially as described in (Morris et al., 2002) except that multiple CAK aliquots were required to enhance the levels of CDK2 Thr160 phosphorylation. […]\nCDK2/cyclin A (200 µM) was incubated overnight with 1 mM inhibitor or DMSO, and then dialysed for 8 h with regular replacement of dialysis buffer into HEPES-buffered saline (50 mM HEPES, pH 7.5, 250 mM NaCl, 0.02% MTG). […] Reactions were stopped by addition of SDS-PAGE loading buffer and analyzed by SDS-PAGE. […]"}, "TSSK1": {"molecular_target": "T1, TSSK1 (Homo sapiens, UniProt Q9BXA7)", "T1 sequence (Q9BXA7 1-367)": "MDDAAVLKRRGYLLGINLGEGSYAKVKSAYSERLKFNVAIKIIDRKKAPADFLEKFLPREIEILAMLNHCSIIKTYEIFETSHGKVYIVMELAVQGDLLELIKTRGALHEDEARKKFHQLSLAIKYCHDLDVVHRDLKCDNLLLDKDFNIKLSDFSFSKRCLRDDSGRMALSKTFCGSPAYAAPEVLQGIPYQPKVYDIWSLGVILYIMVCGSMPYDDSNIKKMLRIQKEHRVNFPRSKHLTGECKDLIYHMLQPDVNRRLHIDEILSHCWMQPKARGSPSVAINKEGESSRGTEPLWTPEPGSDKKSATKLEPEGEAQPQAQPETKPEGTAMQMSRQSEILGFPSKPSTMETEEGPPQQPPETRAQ", "assay": "Dundee kinase screen re-test (standard format and 4 hour pre-incubation)", "assay_type": "biochemical", "settings": "TSSK1, 0.5µM", "method_in_brief": "(§1)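 Selectivity panel of 131 protein kinases, inhibitor tested at a single concentration of 1 µM; values are % kinase activity remaining, mean of duplicates. Re-test of selected kinases used 0.5 µM in the standard format and again after a 4 hour pre-incubation with the inhibitor.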"}, "CDK9-Cyclin T1": {"molecular_target": "CDK9-Cyclin T1 (Homo sapiens, UniProt P50750)", "sequence (P50750 whole entry)": "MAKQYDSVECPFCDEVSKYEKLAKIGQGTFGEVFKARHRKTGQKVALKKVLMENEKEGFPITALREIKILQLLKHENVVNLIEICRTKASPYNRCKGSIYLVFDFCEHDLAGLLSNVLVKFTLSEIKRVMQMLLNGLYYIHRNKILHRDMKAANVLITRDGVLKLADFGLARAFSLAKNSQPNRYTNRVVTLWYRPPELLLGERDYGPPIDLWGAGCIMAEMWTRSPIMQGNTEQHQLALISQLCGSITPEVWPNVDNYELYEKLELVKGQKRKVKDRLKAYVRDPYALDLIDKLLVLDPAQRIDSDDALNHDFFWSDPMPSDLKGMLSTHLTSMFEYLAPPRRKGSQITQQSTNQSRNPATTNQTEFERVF", "sequence (O60563 whole entry partner)": "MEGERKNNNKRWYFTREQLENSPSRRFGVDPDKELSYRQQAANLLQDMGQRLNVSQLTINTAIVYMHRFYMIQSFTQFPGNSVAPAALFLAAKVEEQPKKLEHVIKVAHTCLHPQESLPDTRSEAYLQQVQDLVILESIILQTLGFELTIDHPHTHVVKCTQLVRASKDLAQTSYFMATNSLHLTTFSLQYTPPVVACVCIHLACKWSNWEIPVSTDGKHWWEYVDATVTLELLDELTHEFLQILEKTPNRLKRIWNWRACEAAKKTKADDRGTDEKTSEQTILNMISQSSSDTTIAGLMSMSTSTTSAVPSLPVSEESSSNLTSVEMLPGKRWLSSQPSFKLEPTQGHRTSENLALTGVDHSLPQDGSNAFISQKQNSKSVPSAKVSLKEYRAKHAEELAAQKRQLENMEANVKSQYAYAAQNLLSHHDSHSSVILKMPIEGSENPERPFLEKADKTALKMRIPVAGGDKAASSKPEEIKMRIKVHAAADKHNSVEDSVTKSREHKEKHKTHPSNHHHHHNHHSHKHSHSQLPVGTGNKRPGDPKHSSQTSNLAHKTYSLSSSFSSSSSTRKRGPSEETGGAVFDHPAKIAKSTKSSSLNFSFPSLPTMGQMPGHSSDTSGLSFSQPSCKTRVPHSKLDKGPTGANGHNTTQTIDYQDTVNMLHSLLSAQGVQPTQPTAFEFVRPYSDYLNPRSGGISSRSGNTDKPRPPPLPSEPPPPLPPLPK", "assay": "Dundee kinase screen re-test (standard format and 4 hour pre-incubation)", "assay_type": "biochemical", "settings": "CDK9/cyclin T1, 0.5µM", "method_in_brief": "as §1"}, "ERK8": {"molecular_target": "T2, ERK8 (Homo sapiens, UniProt Q8TD08)", "T2 sequence (Q8TD08 1-544)": "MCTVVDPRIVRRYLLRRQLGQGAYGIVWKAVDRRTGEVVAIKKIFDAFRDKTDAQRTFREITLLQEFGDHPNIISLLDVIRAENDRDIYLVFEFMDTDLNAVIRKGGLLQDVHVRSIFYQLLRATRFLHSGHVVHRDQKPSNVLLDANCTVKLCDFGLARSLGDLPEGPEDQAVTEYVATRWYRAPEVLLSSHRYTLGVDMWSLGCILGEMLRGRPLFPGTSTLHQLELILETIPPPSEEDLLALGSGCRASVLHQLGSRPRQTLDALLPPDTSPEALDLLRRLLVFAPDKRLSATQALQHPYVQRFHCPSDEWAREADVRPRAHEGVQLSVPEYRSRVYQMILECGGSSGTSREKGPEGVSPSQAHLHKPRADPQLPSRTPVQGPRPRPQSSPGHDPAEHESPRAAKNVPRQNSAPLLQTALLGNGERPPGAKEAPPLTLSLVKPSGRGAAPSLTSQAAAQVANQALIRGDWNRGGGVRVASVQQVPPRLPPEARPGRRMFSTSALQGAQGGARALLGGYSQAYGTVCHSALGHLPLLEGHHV", "assay": "Dundee kinase screen re-test (standard format and 4 hour pre-incubation)", "assay_type": "biochemical", "settings": "ERK8, 0.5µM", "method_in_brief": "as §1"}, "[1]": {"settings": "4hr RT preincubation, read-out: %Remaining activity at 0.5µM NU6300 - 4hr RT preincubation"}, "[2]": {"settings": "usual format, read-out: %Remaining activity at 0.5µM NU6300 - Usual assay format"}},
  "note": "Like-named read-outs stand apart in the source and are kept apart here.",
  "data": [
    {"smiles": "C=CS(=O)(=O)c1ccc(Nc2nc(OCC3CCCCC3)c3nc[nH]c3n2)cc1", "note": "[NU6300, 6-(cyclohexylmethoxy)-N-(4-(vinylsulfonyl)phenyl)-9H-purin-2-amine]", "values": [
      {"measurement": "increase in the mass of CDK2 (ESI-MS)", "setting": "CDK2-Cyclin A", "result": 414, "unit": "Da"},
      {"measurement": "remaining activity at 0.5 µM", "setting": "TSSK1; [1]", "result": 67, "unit": "%"},
      {"measurement": "remaining activity at 0.5 µM", "setting": "TSSK1; [2]", "result": 53, "unit": "%"},
      {"measurement": "remaining activity at 0.5 µM", "setting": "CDK9-Cyclin T1; [1]", "result": 127, "unit": "%"},
      {"measurement": "remaining activity at 0.5 µM", "setting": "CDK9-Cyclin T1; [2]", "result": 89, "unit": "%"},
      {"measurement": "remaining activity at 0.5 µM", "setting": "ERK8; [1]", "result": 68, "unit": "%"},
      {"measurement": "remaining activity at 0.5 µM", "setting": "ERK8; [2]", "result": 20, "unit": "%"}
    ]}
  ]
}
